Measurements as given in US20220306647A1, “NOVEL INDOLE-2-CARBOXAMIDES ACTIVE AGAINST THE HEPATITUS B VIRUS (HBV)” (AICURIS GMBH & CO. KG, priority 2019, published 2022).

Columns and labels:
HBV (HepAD38 cells) = assay: HBV replication assay: determination of HBV DNA from the supernatants of HepAD38 cells; type: cell-based; conditions: Hepatitis B virus, 144 h, HBV DNA in HepAD38 supernatant at day 6, qPCR, read-out: Cell activity
Procedure: Determination of HBV DNA from the Supernatants of HepAD38 Cells
The anti-HBV activity was analysed in the stable transfected cell line HepAD38, which has been described to secrete high levels of HBV virion particles (Ladner et al., 1997). In brief, HepAD38 cells were cultured at 37° C. at 5% CO2 and 95% humidity in 200 μl maintenance medium, which was Dulbecco's modified Eagle's medium/Nutrient Mixture F-12 (Gibco, Karlsruhe), 10% fetal bovine serum (PAN Biotech Aidenbach) supplemented with 50 μg/ml penicillin/streptomycin (Gibco, Karlsruhe), 2 mM L-glutamine (PAN Biotech, Aidenbach), 400 μg/ml G418 (AppliChem, Darmstadt) and 0.3 μg/ml tetracycline. Cells were subcultured once a week in a 1:5 ratio, but were usually not passaged more than ten times. For the assay 60,000 cells were seeded in maintenance medium without any tetracycline into each well of a 96-well plate and treated with serial half-log dilutions of test compound. To minimize edge effects the outer 36 wells of the plate were not used but were filled with assay medium. On each assay plate six wells for the virus control (untreated HepAD38 cells) and six wells for the cell control (HepAD38 cells treated with 0.3 μg/ml tetracycline) were allocated, respectively. In addition, one plate set with reference inhibitors like BAY 41-4109, entecavir, and lamivudine instead of screening compounds were prepared in each experiment. In general, experiments were performed thrice in triplicates. At day 6 HBV DNA from 100 μl filtrated cell culture supernatant (AcroPrep Advance 96 Filter Plate, […] Supor membran, PALL GmbH, Dreieich) was automatically purified on the MagNa Pure LC instrument using the MagNA Pure 96 DNA and Viral NA Small Volume Kit (Roche Diagnostics, Mannheim) according to the instructions of the manufacturer. EC50 values were calculated from relative copy numbers of HBV DNA In brief, 5 μl of the 100 μl eluate containing HBV DNA were subjected to PCR LC480 Probes Master Kit (Roche) together with 1 μM antisense primer […], 0.5 μM sense primer […], 0.3 μM hybprobes […]-FL and LC640-[…]-PH (TIBMolBiol, Berlin) to a final volume of 12.5 μl. The PCR was performed on the Light Cycler 480 real time system (Roche Diagnostics, Mannheim) using the following protocol: Pre-incubation for 1 min at 95° C., amplification: 40 cycles×(10 sec at 95° C., 50 sec at 60° C., 1 sec at 70° C.), cooling for 10 sec at 40° C. Viral load was quantitated against known standards using HBV plasmid DNA of pCH-9/3091 (Nassal et al., 1990, Cell 63: 1357-1363) and the LightCycler 480 SW 1.5 software (Roche Diagnostics, Mannheim) and EC50 values were calculated using non-linear regression with GraphPad Prism 6 (GraphPad Software Inc., La Jolla, USA).

[1] = target: T1, HBV core protein (C-terminal truncated core protein, 149 amino acids of the N-terminal assembly domain, BODIPY-FL labelled) (UniProt P03146); assay: Biochemical capsid assembly assay (fluorescence quenching); conditions: assembly started with NaCl, fluorescence read after 6 min, read-out: Assembly activity
T1 construct: fused on or other part: A single cysteine added after residue 149, at position 150; It carries the BODIPY-FL maleimide label
Summary of the method: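 Fluorescence quenching of BODIPY-FL-labelled core dimers (1.0 to 2.0 μM) in 50 mM HEPES pH 7.5; compounds at 8 concentrations, 0.5 log-unit dilutions from top 100, 31.6 or 10 μM, 0.5% DMSO. Assembly started with NaCl to […]; fluorescence (ex 477/em 525 nm) read after 6 min. EC50 by non-linear regression.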

T1 sequence (P03146 whole entry, the tested form may be a part): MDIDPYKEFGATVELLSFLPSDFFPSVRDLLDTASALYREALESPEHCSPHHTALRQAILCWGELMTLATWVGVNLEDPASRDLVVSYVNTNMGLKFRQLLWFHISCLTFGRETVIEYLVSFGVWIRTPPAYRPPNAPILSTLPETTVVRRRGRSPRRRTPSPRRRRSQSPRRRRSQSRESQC

SMILES	EC50 (HBV (HepAD38 cells)) [µM]	IC50 [1] [µM]
CN(C(=O)c1cnn2c1CN(C(=O)c1cc3ccccc3[nH]1)CC2)C1(c2ccc(C(=O)O)cc2)CC1 [Example 12, 4-{1-[N-methyl-5-(1H-indole-2-carbonyl)-4H,5H,6H,7H-pyrazolo[1,5-a]pyrazine-3-amido]cyclopropyl}benzoic acid]	< 1	< 5
CN(C(=O)c1cnn2c1CN(C(=O)c1cc3ccccc3[nH]1)CC2)C1(c2cccc(C(=O)O)c2)CC1 [Example 13, 3-{1-[N-methyl-5-(1H-indole-2-carbonyl)-4H,5H,6H,7H-pyrazolo[1,5-a]pyrazine-3-amido]cyclopropyl}benzoic acid]	1 to 10	< 5
CN1C(=O)c2c3c(nn2CC12CC2)CCN(C(=O)c1cc2ccccc2[nH]1)C3 [Example 14, 12′-(1H-indole-2-carbonyl)-4′-methyl-4′,7′,8′,12′-tetraazaspiro[cyclopropane-1,5′-tricyclo[7.4.0.0^2′7]tridecane]-1′,8′-dien-3′-one]	< 1	< 5
CN1C(=O)c2c3c(nn2CC12CC2)CCN(C(=O)c1cc2cc(F)c(Cl)cc2[nH]1)C3 [Example 15, 12′-(6-chloro-5-fluoro-1H-indole-2-carbonyl)-4′-methyl-4′,7′,8′,12′-tetraazaspirol[cyclopropane-1,5′-tricyclo[7.4.0.0^2′7]tridecane]-1′,8′-dien-3′-one]	< 1	< 5
Cc1cccc2[nH]c(C(=O)N3CCc4nn5c(c4C3)C(=O)N(C)C3(CC3)C5)cc12 [Example 16, 4′-methyl-12′-(4-methyl-1H-indole-2-carbonyl)-4′,7′,8′,12′-tetraazaspiro[cyclopropane-1,5′-tricyclo[7.4.0.0^2′7]tridecane]-1′,8′-dien-3′-one]	< 1	< 5
CN1C(=O)c2c3c(nn2CC12CC2)CCN(C(=O)c1cc2c(Cl)cccc2[nH]1)C3 [Example 17, 12′-(4-chloro-1H-indole-2-carbonyl)-4′-methyl-4′,7′,8′,12′-tetraazaspiro[cyclopropane-1,5′-tricyclo[7.4.0.0^2′7]tridecane]-1′,8′-dien-3′-one]	< 1	< 5
Cc1c(F)ccc2[nH]c(C(=O)N3CCc4nn5c(c4C3)C(=O)N(C)C3(CC3)C5)cc12 [Example 18, 12′-(5-fluoro-4-methyl-1H-indole-2-carbonyl)-4′-methyl-4′,7′,8′,12′-tetraazaspiro[cyclopropane-1,5′-tricyclo[7.4.0.0^2′7]tridecane]-1′,8′-dien-3′-one]	< 1	< 5
CN(CCO)C(=O)c1noc2c1CN(C(=O)c1cc3c(Cl)cccc3[nH]1)CC2 [Example 21, 5-(4-chloro-1H-indole-2-carbonyl)-N-(2-hydroxyethyl)-N-methyl-4H,5H,6H,7H-[1,2]oxazolo[4,5-c]pyridine-3-carboxamide]	< 1	< 5
CN(CCO)C(=O)c1noc2c1CN(C(=O)c1cc3ccccc3[nH]1)CC2 [Example 22, N-(2-hydroxyethyl)-5-(1H-indole-2-carbonyl)-N-methyl-4H,5H,6H,7H-[1,2]oxazolo[4,5-c]pyridine-3-carboxamide]	< 1	< 5
CN(CCO)C(=O)c1noc2c1CN(C(=O)c1cc3c(F)cc(F)cc3[nH]1)CC2 [Example 23, 5-(4,6-difluoro-1H-indole-2-carbonyl)-N-(2-hydroxyethyl)-N-methyl-4H,5H,6H,7H-[1,2]oxazolo[4,5-c]pyridine-3-carboxamide]	< 1	< 5
CN(Cc1ccccc1C(=O)O)C(=O)c1[nH]nc2c1CN(C(=O)c1cc3ccccc3[nH]1)CC2 [Example 24, 2-({1-[5-(1H-indole-2-carbonyl)-2H,4H,5H,6H,7H-pyrazolo[4,3-c]pyridin-3-yl]-N-methylformamido}methyl)benzoic acid]	1 to 10	< 5
